Values joined by “and” are separate entries in the source; they are usually repeats but may differ in a detail not shown here. Identical values can stand only once. Like-named read-outs stand apart in the source and are kept apart here.
Tests used:
[1] = system: acetyl tubulin; assay: Western blotting, acetylated tubulin in HL60 cells; format: cell-based; settings: Western blot, 48 a/b at 10 μM
[2] = target: T1, hHDAC8 (Homo sapiens, UniProt Q9BY41); assay: biochemical
T1 sequence (Q9BY41 1-377): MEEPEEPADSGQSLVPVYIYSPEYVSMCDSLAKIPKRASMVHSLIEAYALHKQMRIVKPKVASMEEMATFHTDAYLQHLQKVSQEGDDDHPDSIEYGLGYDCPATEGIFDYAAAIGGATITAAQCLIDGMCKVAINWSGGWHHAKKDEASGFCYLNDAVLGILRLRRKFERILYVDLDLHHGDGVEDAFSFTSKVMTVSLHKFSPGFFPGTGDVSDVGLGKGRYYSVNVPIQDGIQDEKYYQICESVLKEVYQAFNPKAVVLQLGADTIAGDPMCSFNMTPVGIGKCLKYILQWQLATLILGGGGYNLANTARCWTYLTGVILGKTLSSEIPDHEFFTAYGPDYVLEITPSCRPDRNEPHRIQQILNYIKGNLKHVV

[3] = target: hHDAC1 (Homo sapiens, UniProt Q13547); format: biochemical
[4] = target: T2, HDAC10 (Homo sapiens, UniProt Q969S8); assay: HDAC10 binding assay
T2 sequence (Q969S8 1-669): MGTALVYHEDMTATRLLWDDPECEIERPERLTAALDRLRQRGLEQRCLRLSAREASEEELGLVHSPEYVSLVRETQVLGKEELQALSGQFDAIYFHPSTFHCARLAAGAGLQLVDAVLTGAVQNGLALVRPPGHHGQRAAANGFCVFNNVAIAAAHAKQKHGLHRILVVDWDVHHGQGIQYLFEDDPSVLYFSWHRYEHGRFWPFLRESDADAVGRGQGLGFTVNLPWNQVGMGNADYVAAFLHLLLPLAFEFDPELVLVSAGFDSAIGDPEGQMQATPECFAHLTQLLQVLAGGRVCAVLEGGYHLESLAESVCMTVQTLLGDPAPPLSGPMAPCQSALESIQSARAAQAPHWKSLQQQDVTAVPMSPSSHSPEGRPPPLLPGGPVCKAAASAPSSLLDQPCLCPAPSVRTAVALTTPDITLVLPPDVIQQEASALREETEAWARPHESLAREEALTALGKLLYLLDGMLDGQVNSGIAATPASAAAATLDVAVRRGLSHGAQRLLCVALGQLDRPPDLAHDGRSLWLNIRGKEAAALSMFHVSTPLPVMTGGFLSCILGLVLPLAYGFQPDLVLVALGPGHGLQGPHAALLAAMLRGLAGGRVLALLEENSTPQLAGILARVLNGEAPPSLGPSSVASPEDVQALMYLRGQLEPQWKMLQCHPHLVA

[5] = system: acetyl Histone H3; assay: Western blotting, acetylation of histone H3 in HL60 cells; format: cell-based; settings: Western blot, 48 a/b at 10 μM
[6] = system: SK‐N‐BE(2)‐C cells; assay: LysoTracker assay, flow cytometry; format: cell-based; settings: for increase of LysoTracker signal normalized against DMSO control: concentration differs per compound (Table 8)
[7] = target: T2, HDAC10; assay: BRET assay for HDAC10; format: cell-based
[8] = target: T3, hHDAC6 (Homo sapiens, UniProt Q9UBN7); assay: hHDAC6 activity assay; format: biochemical
T3 sequence (Q9UBN7 1-1215): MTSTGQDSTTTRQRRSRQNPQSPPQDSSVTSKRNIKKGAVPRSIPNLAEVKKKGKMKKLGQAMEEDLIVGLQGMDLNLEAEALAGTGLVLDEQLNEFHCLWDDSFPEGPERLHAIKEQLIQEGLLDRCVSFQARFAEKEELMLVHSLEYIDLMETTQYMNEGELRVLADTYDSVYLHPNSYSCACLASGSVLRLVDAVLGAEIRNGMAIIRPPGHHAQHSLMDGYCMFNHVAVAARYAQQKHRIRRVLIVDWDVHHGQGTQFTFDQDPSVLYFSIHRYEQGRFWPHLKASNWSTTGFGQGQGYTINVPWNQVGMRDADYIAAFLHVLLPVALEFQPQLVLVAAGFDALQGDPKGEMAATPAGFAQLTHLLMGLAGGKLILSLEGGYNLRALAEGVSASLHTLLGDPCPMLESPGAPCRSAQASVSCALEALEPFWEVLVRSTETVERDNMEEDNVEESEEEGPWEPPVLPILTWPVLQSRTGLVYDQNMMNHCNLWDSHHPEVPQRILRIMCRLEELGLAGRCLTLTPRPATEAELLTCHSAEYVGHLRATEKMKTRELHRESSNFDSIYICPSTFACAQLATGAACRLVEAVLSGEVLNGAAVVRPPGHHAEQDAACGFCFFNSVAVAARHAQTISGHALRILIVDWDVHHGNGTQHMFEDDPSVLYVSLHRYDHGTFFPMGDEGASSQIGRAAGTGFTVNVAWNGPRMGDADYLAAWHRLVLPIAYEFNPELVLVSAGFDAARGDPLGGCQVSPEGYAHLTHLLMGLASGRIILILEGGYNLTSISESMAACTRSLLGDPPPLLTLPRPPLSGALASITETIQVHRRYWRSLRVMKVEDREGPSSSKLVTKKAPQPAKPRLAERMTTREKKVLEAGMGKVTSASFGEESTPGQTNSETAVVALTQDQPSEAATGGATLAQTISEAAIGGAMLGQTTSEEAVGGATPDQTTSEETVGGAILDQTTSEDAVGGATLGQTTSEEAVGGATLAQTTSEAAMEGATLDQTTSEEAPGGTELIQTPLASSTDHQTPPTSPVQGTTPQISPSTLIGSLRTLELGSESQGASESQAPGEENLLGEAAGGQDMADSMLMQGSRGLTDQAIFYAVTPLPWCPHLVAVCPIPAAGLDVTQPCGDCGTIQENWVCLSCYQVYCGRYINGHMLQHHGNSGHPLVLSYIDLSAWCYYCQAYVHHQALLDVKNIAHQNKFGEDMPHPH

[9] = system: SK‐N‐BE(2)‐C cells; assay: LysoTracker assay, fluorescence microscopy; format: cell-based; settings: 24 h after treatment
[10] = system: SK‐N‐BE(2)‐C cells; settings: 7.5 μM, flow cytometry; ref 16b; cited from earlier work
[11] = target: T4, drHDAC10 (Danio rerio, UniProt F1QCV2); assay: NDA assay drHDAC10; settings: for inhibition at 0.1 µM / inhibition at 1 µM: read-out: NDA assay drHDAC10 % inhibition
T4 sequence (F1QCV2 2-675 limits assumed): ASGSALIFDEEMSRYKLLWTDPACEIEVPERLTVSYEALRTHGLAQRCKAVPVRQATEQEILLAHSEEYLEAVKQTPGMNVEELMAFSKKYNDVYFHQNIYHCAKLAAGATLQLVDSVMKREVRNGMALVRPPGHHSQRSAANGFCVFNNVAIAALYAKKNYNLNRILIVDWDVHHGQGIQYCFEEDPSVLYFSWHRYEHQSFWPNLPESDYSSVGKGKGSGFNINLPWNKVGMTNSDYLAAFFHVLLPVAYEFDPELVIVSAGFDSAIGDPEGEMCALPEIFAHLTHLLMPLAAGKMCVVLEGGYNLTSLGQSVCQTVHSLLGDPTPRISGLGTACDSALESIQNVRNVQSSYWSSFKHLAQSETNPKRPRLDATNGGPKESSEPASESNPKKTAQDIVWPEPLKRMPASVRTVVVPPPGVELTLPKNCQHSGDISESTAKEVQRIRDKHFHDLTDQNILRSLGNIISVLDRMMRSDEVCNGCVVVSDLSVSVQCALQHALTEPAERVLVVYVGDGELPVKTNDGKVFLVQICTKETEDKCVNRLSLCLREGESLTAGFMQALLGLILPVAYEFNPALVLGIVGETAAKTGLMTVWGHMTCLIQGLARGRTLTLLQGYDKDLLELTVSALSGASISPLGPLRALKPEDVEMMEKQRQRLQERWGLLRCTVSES

[12] = target: T2, HDAC10; settings: TR‐FRET and BRET displacement assays; cited from earlier work
[13] = target: T4, drHDAC10; assay: Proof of substrate conversion by HPLC; format: biochemical, Danio rerio (zebrafish); settings: drHDAC10 0.027 mg/mL, up to 45 min
[14] = target: T2, HDAC10; settings: read-out: BRET assay (EC50); in‐cellulo; ref 32 (Géraldy et al.); cited from earlier work
[15] = @ 1 (concentration unit not given)
[16] = @ 10 (concentration unit not given)

Sequence of hHDAC1 (Q13547 whole entry): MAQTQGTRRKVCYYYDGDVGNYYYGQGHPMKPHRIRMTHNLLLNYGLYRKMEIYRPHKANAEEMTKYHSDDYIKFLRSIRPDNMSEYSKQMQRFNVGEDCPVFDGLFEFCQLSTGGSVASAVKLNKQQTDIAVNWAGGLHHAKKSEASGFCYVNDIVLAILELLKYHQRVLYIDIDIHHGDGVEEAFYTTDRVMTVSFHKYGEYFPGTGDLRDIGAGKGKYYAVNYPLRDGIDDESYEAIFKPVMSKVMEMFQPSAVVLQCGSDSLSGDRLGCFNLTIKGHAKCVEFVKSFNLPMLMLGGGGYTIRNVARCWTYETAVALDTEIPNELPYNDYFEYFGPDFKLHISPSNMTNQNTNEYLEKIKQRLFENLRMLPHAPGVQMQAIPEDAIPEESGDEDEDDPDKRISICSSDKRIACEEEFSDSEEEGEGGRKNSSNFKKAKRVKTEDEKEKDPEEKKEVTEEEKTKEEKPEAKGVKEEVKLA

For `O=C(NO)C1CCN(CCNCc2ccc(Br)cc2)CC1` [48 b, 1‐(2‐((4‐Bromobenzyl)amino)ethyl)‐N‐hydroxypiperidine‐4‐carboxamide], the “effect on acetyl tubulin (HDAC6)” value [1] was “no increase”, the IC50 ([2]; inhibition of HDAC8) was about 1 µM and the “hHDAC1 (ZMAL) % inhibition” value [3, 15] was under 10%. The “hHDAC1 (ZMAL) % inhibition” value [3, 16] was 11%, the IC50 [4] was 0.002 µM and the “effect on acetyl Histone H3 (class I, representative HDAC1)” value (“effect on acetyl Histone H3” for short) [5] was “no increase”. For the same compound, the “LysoTracker effect (relative signal intensity as compared to control)” value ([6]; 10 μM) was 1.07±0.15, the “LysoTracker effect (relative signal intensity as compared to control)” value ([6]; 20.0 μM) was 1.04±0.05 and the “increase of LysoTracker signal normalized against DMSO control” value [6] was “did not show an increase in signal”. For the same compound, the EC50 [7] was 0.01 µM, the “hHDAC6 (ZMAL) % inhibition” value [8, 15] was under 10% and the “hHDAC6 (ZMAL) % inhibition” value [8, 16] was 11%.

In the case of `O=C(CCCCCCC(=O)Nc1ccc([C@H]2O[C@@H](CSc3nc(-c4ccccc4)c(-c4ccccc4)o3)C[C@@H](c3ccc(CO)cc3)O2)cc1)NO` [tubacin], the “accumulation of lysosomes, LysoTracker signal by fluorescence microscopy” value (“accumulation of lysosomes” below) [9] is given as “No influence” and the “LysoTracker effect (relative signal intensity as compared to control)” value [10] is given as 1.1 and 1.1±0.07.

`CCCCOc1ccc(CC(=O)NO)cc1` [bufexamac] showed an inhibition at 0.1 µM [11] of 26% and an inhibition at 1 µM [11] of 64%.

In the case of `CN1CCc2c(c3ccccc3n2Cc2ccc(C(=O)NO)cc2)C1` [tubastatin A], the “HDAC10 binding in displacement assays” value [12] is given as “bound strongly”, the IC50 [11] is given as 0.03 ± 0.003 µM and the inhibition at 0.1 µM [11] is given as 82%. For the same compound, the inhibition at 1 µM [11] was over 95%.

For `CC(=O)NCCCCNCCC(=O)Nc1ccc2c(C)cc(=O)oc2c1` [Ac‐spermidine‐AMC, 3‐((4‐Acetamidobutyl)amino)‐N‐(4‐methyl‐2‐oxo‐2H‐chromen‐7‐yl)propanamide], the “maximal conversion by drHDAC10 (HPLC, fluorescamine derivatization)” value [13] was “about 50%”.

For `Cn1cc(CNCC2CCN(c3ncc(C(=O)NO)cn3)CC2)c2ccccc21` [quisinostat], the “accumulation of lysosomes” value [9] is listed as “very strong response”, the EC50 [14] is listed as 0.04 µM and the “increase of LysoTracker signal normalized against DMSO control” value [6] is listed as “up to 3 fold”. The IC50 [11] was 0.05 µM, the inhibition at 0.1 µM [11] was 60% and the inhibition at 1 µM [11] was 91%.

`Nc1ccccc1NC(=O)c1ccc(CNc2nccc(-c3cccnc3)n2)cc1` [mocetinostat] gave an inhibition at 0.1 µM [11] of under 10% and an inhibition at 1 µM [11] of under 10%.

In the case of `Cc1[nH]c2ccccc2c1CCNCc1ccc(/C=C/C(=O)NO)cc1` [panobinostat], the “accumulation of lysosomes” value [9] is reported as “very strong response”, the “increase of LysoTracker signal normalized against DMSO control” value [6] is reported as “up to 3 fold” and the inhibition at 0.1 µM [11] is reported as 65%. For the same compound, the inhibition at 1 µM [11] was over 95%.

With `O=C(NO)C1CCN(CCNCc2ccccc2)CC1` [48 a, 1‐(2‐(Benzylamino)ethyl)‐N‐hydroxypiperidine‐4‐carboxamide] the “effect on acetyl tubulin (HDAC6)” value [1] was “no increase”, the IC50 ([2]; hHDAC8 (FDL) IC50) was 1.97 ± 0.309 µM and the IC50 ([2]; inhibition of HDAC8) was about 1 µM. The “hHDAC1 (ZMAL) % inhibition” value [3, 15] was under 10%, the “hHDAC1 (ZMAL) % inhibition” value [3, 16] was 20% and the IC50 [4] was 0.005 µM. The “effect on acetyl Histone H3” value [5] was “no increase”, the EC50 [7] was 0.026 µM and the “hHDAC6 (ZMAL) % inhibition” value [8, 15] was under 10 % @ 10 <10 % @ 1. The “hHDAC6 (ZMAL) % inhibition” value [8, 16] was under 10 % @ 10 <10 % @ 1.

With `O=C(CCCCCCC(=O)Nc1ccccc1)NO` [vorinostat] the “effect on acetyl tubulin (HDAC6)” value [1] was “robust hyperacetylation”, the “effect on acetyl Histone H3” value [5] was “robust hyperacetylation” and the IC50 [11] was 2 ± 0.24 µM. The inhibition at 0.1 µM [11] was under 10% and the inhibition at 1 µM [11] was 43%.

For `CN(C)Cc1c(C(=O)NCCOc2ccc(C(=O)NO)cc2)oc2ccccc12` [abexinostat], the “accumulation of lysosomes” value [9] was “very strong response”, the “increase of LysoTracker signal normalized against DMSO control” value [6] was “up to 3 fold” and the IC50 [11] was 0.134 ± 0.026 µM. For the same compound, the inhibition at 0.1 µM [11] was 45% and the inhibition at 1 µM [11] was over 95%.

Reference: paper PMC9308754 (Chembiochem, 2022)
